Literature values, collected in publication PMC6095934, “Impact of rifampicin-inhibitable transport on the liver distribution and tissue kinetics of erlotinib assessed with PET imaging in rats” (EJNMMI Research, 2018).

Columns and labels:
MRP2 (ABCC2) [1] = tested on: MRP2 (ABCC2); design: method as in PMID 18723475
OAT3 [2] = tested on: OAT3; design: method as in PMID 21088257
human OATP2B1 [3] = details: in vitro, transfected cells
[4] = NSCLC patients, 150 mg erlotinib once daily
OAT2 = tested on: OAT2; design: method as in PMID 21088257
OCT2 [5] = tested on: OCT2; design: method as in PMID 21088257, PMID 26976869
OAT1 [6] = tested on: OAT1; design: method as in PMID 21088257
[7] = tested on: organic anion transporter 2 (OAT2, SLC22A7); details: in vitro
OAT1 [8] = tested on: OAT1
OAT3 [9] = tested on: OAT3
OCT2 [10] = tested on: OCT2; design: method as in PMID 21088257, PMID 26976869; remark: listed apart in the source
MRP2 (ABCC2) [11] = tested on: MRP2 (ABCC2); design: method as in PMID 23440558; details: canalicular side of hepatocytes
[12] = tested on: organic cation transporter 1 (OCT1, SLC22A1)
OATP4C1 = tested on: OATP4C1; design: method as in PMID 28550055
human OATP2B1 [13] = tested on: human OATP2B1

Structure (SMILES) | substrate of MRP2 (MRP2 (ABCC2) [1]) | substrate of OAT3 (OAT3 [2]) | transport by human OATP2B1 (human OATP2B1 [3]) | interpatient variability in area under the curve (AUC) [4] | interpatient variability in trough plasma concentrations [4] | transport by OAT2 (OAT2) | substrate of OCT2 (OCT2 [5]) | transport by OAT1 (OAT1 [6]) | inhibition of OAT2 [7] | Ki (rOATP1A1) | inhibition of OAT1 (OAT1 [8]) | inhibition of OAT3 (OAT3 [9]) | inhibition of OCT2 (OCT2 [10]) | inhibition of MRP2 (MRP2 (ABCC2) [11]) | Ki [12] | inhibition of OATP4C1 (OATP4C1) | IC50 (human OATP1B1) | Ki (rOATP1B2) | IC50 (human OATP1B3) | IC50 (human OATP2B1 [13])
C#Cc1cccc(Nc2ncnc3cc(OCCOC)c(OCCOC)cc23)c1 [erlotinib, Erlotinib] | not a substrate | substrate | specifically transported | 51% | 64% | neither transported | substrate | neither transported | – | – | – | – | – | – | – | – | – | – | – | –
CO[C@H]1/C=C/O[C@@]2(C)Oc3c(C)c(O)c4c(O)c(c(/C=N/N5CCN(C)CC5)c(O)c4c3C2=O)NC(=O)/C(C)=C\C=C\[C@H](C)[C@H](O)[C@@H](C)[C@@H](O)[C@@H](C)[C@H](OC(C)=O)[C@@H]1C [rifampicin, Rifampicin] | – | – | – | – | – | – | – | – | inhibited neither | 18 µM | inhibitor | not | not inhibited | potent inhibitor | > 100 µM | not an inhibitor | 1.9 ± 0.16 µM | 0.79 µM | 6.4 ± 0.5 µM | 91 ± 14.6 µM
